Experiment: In vitro dissolution test of Drug 1 from tablets (simulated intestinal buffer pH 6.8 with 0.5 wt % sodium lauryl sulfate)
Type: physicochemical
Conditions: 120 mgA tablet of Example 2, 900 mL pH 6.8 buffer + 0.5 wt % SLS, 37° C., 100 rpm, average of two tests
Method: An in vitro test may be used to determine whether a dosage form provides a release profile within the scope of the present invention. In vitro tests are well known in the art. One example is a so-called “direct” test, where the dosage form is placed into a stirred USP type 2 dissoette flask containing 900 mL of a dissolution medium maintained at 37° C., such as a buffer solution simulating a gastric environment (10 mM HCl, 100 mM NaCl, pH 2.0, 261 mOsm/kg) or the PBS or MFD solutions previously described. One skilled in the art will understand that in such tests the dissolution medium should act as a sink for the drug in the dosage form. By “sink” is meant that the composition and volume of the dissolution medium is sufficient such that substantially all of the drug in the dosage form will dissolve into the dissolution medium within about 4 hours or less. In some cases a surfactant, such as sodium lauryl sulfate or other excipients may be added to the dissolution medium to ensure the dissolution medium acts as a sink for the drug. The dosage form is placed in a wire support to keep the dosage form off of the bottom of the flask, so that all of its surfaces are exposed to the dissolution medium, and the medium is stirred using paddles that rotate at a rate of 50 rpm. Samples of the dissolution medium are taken at periodic intervals using a VanKel VK8000 autosampling dissoette with automatic receptor solution replacement. The concentration of dissolved drug in the dissolution medium is then determined by High Performance Liquid Chromatography (HPLC), by comparing UV absorbance of samples to the absorbance of drug standards. The mass of dissolved drug in the dissolution medium is then calculated from the concentration of drug in the medium and the volume of the medium, which value is used to calculate the actual amount of drug released from the dosage form, taking into consideration the mass of drug originally present in the dosage form.
Drug 1 dissolution from the tablets of Example 2 was measured using an in vitro test. First, a dissolution medium consisting of a simulated intestinal buffer solution was made by dissolving 6.8 g of KH2PO4 in 750 mL of deionized water with 85 mL 0.2M NaOH. Water was added for a final volume of 1 L. The pH was adjusted to 6.8±0.1 using 0.2M NaOH. Next, 0.5 wt % sodium lauryl sulfate was added to the buffer. A 900 mL sample of this solution was added to each of two vessels in a VanKel dissolution testing apparatus with automatic sampling. The solution temperature was maintained at 37° C., and stirred with a paddle speed of 100 rpm. This dissolution medium acted as a sink for the 120 mgA tablets. After equilibration to 37° C., a tablet of Example 2 was added to each vessel containing the buffer solution, resulting in a Drug 1 concentration of 130 μgA/mL, assuming all of the drug had dissolved. Samples were collected at 5, 15, 20, 35, 45, 60, 75, 90, 120 and 180 minutes, and then analyzed by HPLC using a Waters Symmetry C8 column. The mobile phase consisted of 0.2 vol % H3PO4 (in water)/methanol in the ratio of 15/85 (vol/vol). Drug 1 concentration was calculated by comparing UV absorbance at 256 nm to the absorbance of Drug 1 standards.

Drug 1 Concentration (time 0 min): 0 μgA/mL | Drug 1 Released (time 0 min): 0 wt % | Drug 1 Concentration (time 5 min): 49 μgA/mL | Drug 1 Released (time 5 min): 37 wt % | Drug 1 Concentration (time 15 min): 114 μgA/mL | Drug 1 Released (time 15 min): 87 wt % | Drug 1 Concentration (time 20 min): 123 μgA/mL | Drug 1 Released (time 20 min): 94 wt % | Drug 1 Concentration (time 35 min): 126 μgA/mL | Drug 1 Released (time 35 min): 96 wt % | Drug 1 Concentration (time 45 min): 126 μgA/mL | Drug 1 Released (time 45 min): 96 wt % | Drug 1 Concentration (time 60 min): 125 μgA/mL | Drug 1 Released (time 60 min): 95 wt % | Drug 1 Concentration (time 75 min): 128 μgA/mL | Drug 1 Released (time 75 min): 98 wt % | Drug 1 Concentration (time 90 min): 127 μgA/mL | Drug 1 Released (time 90 min): 97 wt % | Drug 1 Concentration (time 120 min): 127 μgA/mL | Drug 1 Released (time 120 min): 97 wt % | Drug 1 Concentration (time 180 min): 131 μgA/mL | Drug 1 Released (time 180 min): 100 wt %
Structure (SMILES): CCOC(=O)N1c2ccc(C(F)(F)F)cc2C(N(Cc2cc(C(F)(F)F)cc(C(F)(F)F)c2)C(=O)OC)CC1CC (stereo not shown) [Drug 1, 4-[(3,5-bis-trifluoromethyl-benzyl)-methoxycarbonyl-amino]-2-ethyl-6-trifluoromethyl-3,4-dihydro-2H-quinoline-1-carboxylic acid ethyl ester]
